From PubChem BioAssay AID248 (DTP/NCI, 2004)
Where “and” joins values, the source holds several entries; their conditions need not be identical. Equal values may be shown once. Inconclusive results and toxic doses are left out. No stated cut-off is given here; in the data, active means T/C of 150% or more; inactive means T/C below 125%.

Test system: L1210 leukemia ip in BDF1 mice, survival T/C
Assay: NCI In Vivo Anticancer Drug Screen. Data for tumor model L1210 Leukemia (intraperitoneal) in B6D2F1 (BDF1) mice
Details: endpoint: mean survival time, higher = longer survival
How it was run: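 Each compound was tested against a transplantable tumor grown in mice. The endpoint was survival, with treated animals benchmarked against vehicle controls as a simple ratio.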

[1] = dose: 50.0 mg/kg/injection, schedule: Q01DX009 (ip), vehicle: saline with Tween-80
[2] = dose: 100.0 mg/kg/injection, schedule: Q01DX009 (ip), vehicle: saline with Tween-80
[3] = dose: 200.0 mg/kg/injection, schedule: Q01DX009 (ip), vehicle: saline with Tween-80
[4] = dose: 400.0 mg/kg/injection, schedule: Q01DX009 (ip), vehicle: saline with Tween-80
[5] = dose: 100.0 mg/kg/injection, schedule: Q04DX003 (ip), vehicle: saline with Tween-80
[6] = dose: 200.0 mg/kg/injection, schedule: Q04DX003 (ip), vehicle: saline with Tween-80
[7] = dose: 100.0 mg/kg/injection, schedule: Q01DX001 (ip), vehicle: saline
[8] = dose: 200.0 mg/kg/injection, schedule: Q01DX001 (ip), vehicle: saline
[9] = dose: 100.0 mg/kg/injection, schedule: Q04DX003 (ip), vehicle: saline
[10] = dose: 200.0 mg/kg/injection, schedule: Q04DX003 (ip), vehicle: saline
[11] = dose: 100.0 mg/kg/injection, schedule: Q04DX003 (ip), vehicle: Klucel (hydroxypropylcellulose) (HPC)
[12] = dose: 200.0 mg/kg/injection, schedule: Q04DX003 (ip), vehicle: Klucel (hydroxypropylcellulose) (HPC)
[13] = dose: 400.0 mg/kg/injection, schedule: Q04DX003 (ip), vehicle: Klucel (hydroxypropylcellulose) (HPC)
[14] = dose: 100.0 mg/kg/injection, schedule: Q01DX009 (ip), vehicle: Klucel (hydroxypropylcellulose) (HPC)
[15] = dose: 200.0 mg/kg/injection, schedule: Q01DX009 (ip), vehicle: Klucel (hydroxypropylcellulose) (HPC)
[16] = dose: 400.0 mg/kg/injection, schedule: Q01DX009 (ip), vehicle: Klucel (hydroxypropylcellulose) (HPC)

Measured: T/C

C=C1C(=O)OC2CC(C)CCC/C(CO)=C/C(OC(=O)/C(=C/CO)CO)C12 (centres undefined)
inactive: dose: 3.75 mg/kg/injection, schedule: Q04DX003 (ip), vehicle: saline 89 % of control | dose: 4.9 mg/kg/injection, schedule: Q01DX009 (ip), vehicle: acetone 93 % of control | dose: 7.5 mg/kg/injection, schedule: Q01DX001 (ip), vehicle: acetone 97 % of control | dose: 7.5 mg/kg/injection, schedule: Q01DX009 (ip), vehicle: acetone 98 % of control | dose: 7.5 mg/kg/injection, schedule: Q04DX003 (ip), vehicle: saline 100 % of control | dose: 11.0 mg/kg/injection, schedule: Q01DX009 (ip), vehicle: acetone 93 % of control | dose: 15.0 mg/kg/injection, schedule: Q01DX001 (ip), vehicle: acetone 103 % of control | dose: 15.0 mg/kg/injection, schedule: Q04DX003 (ip), vehicle: saline 99 % of control

O=C(O)c1ccsc1Cc1ccsc1
inactive: [1] 89 % of control | [2] 96 % of control | [3] 86 % of control

COC1=C(OC)C(=O)C(SC/C=C(\C)CCCC(C)CCCC(C)CCCC(C)C)=CC1=O (centres undefined)
inactive: dose: 6.25 mg/kg/injection, schedule: Q01DX009 (ip), vehicle: saline with Tween-80 103 % of control | dose: 12.5 mg/kg/injection, schedule: Q01DX009 (ip), vehicle: saline with Tween-80 105 % of control | dose: 25.0 mg/kg/injection, schedule: Q01DX009 (ip), vehicle: saline with Tween-80 100 % of control and 113 % of control | [1] 104 % of control and 122 % of control | [2] 105 % of control and 122 % of control | [3] 115 % of control and 124 % of control | [4] 115 % of control

NC(=S)Nc1ccncc1
inactive: dose: 100.0 mg/kg/injection, schedule: Q04DX002 (ip), vehicle: Klucel (hydroxypropylcellulose) (HPC) 92 % of control | dose: 200.0 mg/kg/injection, schedule: Q04DX002 (ip), vehicle: Klucel (hydroxypropylcellulose) (HPC) 106 % of control | dose: 400.0 mg/kg/injection, schedule: Q04DX002 (ip), vehicle: Klucel (hydroxypropylcellulose) (HPC) 95 % of control

CCCCNc1ncnc2c1nnn2C1OC(CO)C(O)C1O (centres undefined)
inactive: dose: 12.5 mg/kg/injection, schedule: Q04DX002 (ip), vehicle: Klucel (hydroxypropylcellulose) (HPC) 100 % of control | dose: 25.0 mg/kg/injection, schedule: Q04DX002 (ip), vehicle: Klucel (hydroxypropylcellulose) (HPC) 94 % of control | dose: 50.0 mg/kg/injection, schedule: Q04DX002 (ip), vehicle: Klucel (hydroxypropylcellulose) (HPC) 97 % of control

CCCCC(=C/C(C)(C)C)/C(=C/C(C)(C)C)CCCC
inactive: dose: 150.0 mg/kg/injection, schedule: Q01DX009 (ip), vehicle: saline 88 % of control | dose: 300.0 mg/kg/injection, schedule: Q01DX009 (ip), vehicle: saline 88 % of control

CC(N)C(=O)NC(C(=O)O)C(C)C (centres undefined)
inactive: dose: 100.0 mg/kg/injection, schedule: Q04DX002 (ip), vehicle: saline 101 % of control and 98 % of control | dose: 200.0 mg/kg/injection, schedule: Q04DX002 (ip), vehicle: saline 101 % of control and 95 % of control | dose: 400.0 mg/kg/injection, schedule: Q04DX002 (ip), vehicle: saline 96 % of control and 95 % of control

CCCCCCCc1nc(/N=N/N(C)C)c(C(N)=O)[nH]1
inactive: [5] 101 % of control | [3] 91 % of control | [6] 98 % of control | dose: 400.0 mg/kg/injection, schedule: Q04DX003 (ip), vehicle: saline with Tween-80 110 % of control

CCC(O)c1ccc2ccccc2c1 (centres undefined)
inactive: dose: 100.0 mg/kg/injection, schedule: Q01DX001 (ip), vehicle: carboxymethylcellulose (CMC) 98 % of control | dose: 200.0 mg/kg/injection, schedule: Q01DX001 (ip), vehicle: carboxymethylcellulose (CMC) 98 % of control | dose: 400.0 mg/kg/injection, schedule: Q01DX001 (ip), vehicle: carboxymethylcellulose (CMC) 93 % of control

COc1cc(/C=C(/C)[N+](=O)[O-])c([N+](=O)[O-])cc1OC
inactive: [7] 98 % of control | [8] 90 % of control

FC(F)(F)c1nc2cccc3c2n1CCC3
inactive: [1] 93 % of control | [2] 87 % of control | [5] 97 % of control | [3] 101 % of control | [6] 96 % of control

CCc1nccc(=O)[nH]1
inactive: dose: 50.0 mg/kg/injection, schedule: Q01DX009 (ip), vehicle: saline 102 % of control and 101 % of control | dose: 100.0 mg/kg/injection, schedule: Q01DX009 (ip), vehicle: saline 88 % of control and 110 % of control | [9] 94 % of control and 110 % of control | dose: 200.0 mg/kg/injection, schedule: Q01DX009 (ip), vehicle: saline 100 % of control and 103 % of control | [10] 89 % of control and 104 % of control

S=C(S)NCCCNC(=S)S
inactive: [7] 98 % of control and 103 % of control | [8] 95 % of control and 100 % of control | dose: 400.0 mg/kg/injection, schedule: Q01DX001 (ip), vehicle: saline 95 % of control

[O-]/[N+](=C\c1ccccc1)Cc1ccccc1
inactive: dose: 100.0 mg/kg/injection, schedule: Q04DX003 (ip), vehicle: carboxymethylcellulose (CMC) 94 % of control | dose: 200.0 mg/kg/injection, schedule: Q04DX003 (ip), vehicle: carboxymethylcellulose (CMC) 97 % of control

O=C(NCCBr)Nc1ccc2c(c1)CCCC2
inactive: [11] 102 % of control | [12] 93 % of control | [13] 93 % of control

COC(=O)c1cc2c(s1)C(=O)c1ccccc1-2
inactive: [11] 104 % of control | [12] 94 % of control | [13] 105 % of control

COc1ccc(OC)c(C2C(C#N)C(C=O)NC(C=O)C2C#N)c1 (centres undefined)
inactive: dose: 100.0 mg/kg/injection, schedule: Q04DX003 (ip), vehicle: other 107 % of control | dose: 200.0 mg/kg/injection, schedule: Q04DX003 (ip), vehicle: other 109 % of control | dose: 400.0 mg/kg/injection, schedule: Q04DX003 (ip), vehicle: other 107 % of control

O=C1CCC2(CC2)C(=O)O1
inactive: [9] 91 % of control | [10] 95 % of control | dose: 400.0 mg/kg/injection, schedule: Q04DX003 (ip), vehicle: saline 91 % of control

F[Si]1(c2cccc(Br)c2)c2ccccc2-c2ccccc21
inactive: dose: 100.0 mg/kg/injection, schedule: Q01DX001 (ip), vehicle: saline with Tween-80 103 % of control | [2] 103 % of control | dose: 200.0 mg/kg/injection, schedule: Q01DX001 (ip), vehicle: saline with Tween-80 100 % of control | [3] 101 % of control | dose: 400.0 mg/kg/injection, schedule: Q01DX001 (ip), vehicle: saline with Tween-80 100 % of control | [4] 104 % of control

CC(=O)N(C)c1ccc(NC(=O)Nc2ccccc2F)cc1
inactive: [14] 98 % of control | [15] 95 % of control | [16] 95 % of control

O=C(O)c1ccccc1C(=O)Nc1ccccc1F
inactive: [11] 97 % of control | [15] 86 % of control | [12] 92 % of control | [16] 91 % of control | [13] 91 % of control

COc1ccccc1/C=N/NC(=O)CCCCCCCCC(=O)N/N=C/c1ccccc1OC
inactive: [14] 95 % of control | [15] 88 % of control | [16] 88 % of control

CC(C)=CC(=O)NC(=O)NS(=O)(=O)c1ccc(C)cc1
inactive: dose: 50.0 mg/kg/injection, schedule: Q01DX009 (ip), vehicle: Klucel (hydroxypropylcellulose) (HPC) 91 % of control | [14] 95 % of control | [11] 115 % of control | [12] 104 % of control

CN(C)c1ccc(/C=C2\CC/C(=C\c3ccc(N(C)C)cc3)C2=O)cc1
inactive: [14] 105 % of control | [15] 97 % of control | [16] 89 % of control
